Data on three compounds can be found in patent US10100010B1, “4-methoxy pyrrole derivatives or salts thereof and pharmaceutical composition comprising the same” (Daewoong Pharmaceutical Co., Ltd., priority 2015, dated 2018).

Counter-ions that a name gives are not always drawn. Like-named read-outs stand apart in the source and are kept apart here.

In assay [1] the target is T1, proton pump (H+/K+-ATPase) (Sus scrofa, UniProt P19156).
T1 construct: Gastric vesicles were prepared from a hog stomach; from tissue; host or cells: hog stomach (gastric vesicles, method of Rabon et al. 1988)
The experiment in a line: Inhibitory effects on proton pump (H+/K+-ATPase) activity, gastric vesicles, malachite green Pi detection. In kind it is biochemical. As to conditions: hog gastric vesicles, 37° C. 40 minutes, pH 7.4. How it is done: The inhibitory effects on proton pump (H^+/K^+-ATPase) activity of the compounds prepared in Examples 2, 8 and 22 were measured as follows.
Gastric vesicles were prepared from a hog stomach in accordance with the known method (Edd C. Rabon et al., Preparation of Gastric H^+, K^+-ATPase., Methods in enzymology, vol. 157 Academic Press Inc., (1988), pp. 649-654). The protein contents of gastric vesicles thus prepared were quantitatively measured with Bicinchoninic Acid (BCA) kit (Thermo Co.).
80 ul of (a predetermined concentration of a test compound, 0.5% DMSO, 2.5 mM MgCl2, 12.5 mM KCl, 1.25 mM EDTA, 60 mM Tris-HCl, pH7.4) was added to each well of 96-well plate. 10 ul of the reaction solution containing gastric vesicles (60 mmol/l, Tris-HCl buffer solution, pH 7.4), and 10 ul of Tris buffer solution containing adenosine triphosphate (10 mM ATP, Tris-HCl buffer solution, pH 7.4) were added to each well and subjected to enzymatic reaction at 37° C. for 40 minutes. […] The amount of monophosphate (Pi) in the reaction solution was measured at 570 nm by using a microplate reader (FLUOstar Omega, BMG Co.). The inhibition rate (%) was measured from the activity value of the control group and the activity value of the test compound at various concentrations, and the concentration (IC50) that inhibits H^+/K^+-ATPase activity by 50% was calculated from each % inhibition value of the compounds using Logistic 4-parameter function of Sigmaplot8.0 program.

Another assay has as its target 5-HT2A (Homo sapiens, UniProt P28223). The experiment in a line: GPCR Calcium Flux assay (FLIPR tetra, Eurofins), 5-HT2A. As to conditions: for inhibition at 10 µM: read-out: inhibition rate (%) 5-HT2A; for IC50: 8 concentrations 10 to 0.0006 uM, read-out: 50% inhibitory concentration (IC50) 5-HT2A. In kind it is cell-based.
The next assay addresses T2, M1 (Homo sapiens, UniProt P11229).
T2 sequence (P11229 1-460): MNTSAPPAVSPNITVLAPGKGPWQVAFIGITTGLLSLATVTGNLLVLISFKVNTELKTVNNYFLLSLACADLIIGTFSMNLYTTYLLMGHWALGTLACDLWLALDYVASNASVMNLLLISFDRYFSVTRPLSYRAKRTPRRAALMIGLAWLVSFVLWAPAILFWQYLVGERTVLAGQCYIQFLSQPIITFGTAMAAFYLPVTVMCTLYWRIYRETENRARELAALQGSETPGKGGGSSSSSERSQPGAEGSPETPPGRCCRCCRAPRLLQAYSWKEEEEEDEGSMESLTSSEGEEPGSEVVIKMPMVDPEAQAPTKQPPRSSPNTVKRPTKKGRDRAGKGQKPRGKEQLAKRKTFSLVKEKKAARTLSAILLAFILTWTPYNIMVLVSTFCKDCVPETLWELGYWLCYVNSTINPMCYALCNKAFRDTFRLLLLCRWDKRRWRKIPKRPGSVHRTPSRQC
The experiment in a line: GPCR Calcium Flux assay (FLIPR tetra, Eurofins), M1. In kind it is cell-based. The conditions noted are these: for inhibition at 10 µM: single concentration of 10 uM, read-out: inhibition rate (%) M1; for IC50: 8 concentrations 10 to 0.0006 uM, read-out: 50% inhibitory concentration (IC50) M1. (In general: Calcium flux is commonly read through the fluorescence of an indicator in the cells.)

A further assay addresses T3, M2 (Homo sapiens, UniProt P08172).
T3 sequence (P08172 1-466): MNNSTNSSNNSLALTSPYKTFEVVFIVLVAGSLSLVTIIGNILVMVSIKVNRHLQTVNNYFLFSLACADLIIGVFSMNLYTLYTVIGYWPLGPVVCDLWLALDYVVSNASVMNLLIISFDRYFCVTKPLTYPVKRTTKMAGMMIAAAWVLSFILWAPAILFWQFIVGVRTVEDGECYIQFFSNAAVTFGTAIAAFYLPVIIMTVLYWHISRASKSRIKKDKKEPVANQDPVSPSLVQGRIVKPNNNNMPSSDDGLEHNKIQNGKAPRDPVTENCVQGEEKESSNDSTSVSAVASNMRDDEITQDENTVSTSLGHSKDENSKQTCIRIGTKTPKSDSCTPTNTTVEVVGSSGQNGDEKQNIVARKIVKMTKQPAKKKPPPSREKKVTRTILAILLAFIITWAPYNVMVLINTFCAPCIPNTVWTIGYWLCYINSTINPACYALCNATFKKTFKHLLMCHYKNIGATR
The experiment in a line: GPCR Calcium Flux assay (FLIPR tetra, Eurofins), M2. The assay is classed as cell-based. The conditions noted are these: for inhibition at 10 µM: single concentration of 10 uM, read-out: inhibition rate (%) M2; for IC50: 8 concentrations 10 to 0.0006 uM, read-out: 50% inhibitory concentration (IC50) M2.

Sequence of 5-HT2A (P28223 whole entry): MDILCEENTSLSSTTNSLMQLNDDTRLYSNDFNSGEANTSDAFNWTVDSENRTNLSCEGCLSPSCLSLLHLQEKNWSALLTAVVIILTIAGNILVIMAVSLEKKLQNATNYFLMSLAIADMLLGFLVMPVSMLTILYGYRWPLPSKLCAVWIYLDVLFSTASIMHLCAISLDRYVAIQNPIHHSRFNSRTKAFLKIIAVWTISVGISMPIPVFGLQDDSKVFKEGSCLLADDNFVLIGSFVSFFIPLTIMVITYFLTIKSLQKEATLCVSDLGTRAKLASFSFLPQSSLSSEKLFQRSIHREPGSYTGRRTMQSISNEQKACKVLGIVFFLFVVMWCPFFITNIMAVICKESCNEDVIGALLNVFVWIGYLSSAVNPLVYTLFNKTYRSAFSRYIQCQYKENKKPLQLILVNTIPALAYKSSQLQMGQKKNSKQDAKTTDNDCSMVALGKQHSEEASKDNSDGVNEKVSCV
T1 sequence (P19156 2-1034 limits assumed): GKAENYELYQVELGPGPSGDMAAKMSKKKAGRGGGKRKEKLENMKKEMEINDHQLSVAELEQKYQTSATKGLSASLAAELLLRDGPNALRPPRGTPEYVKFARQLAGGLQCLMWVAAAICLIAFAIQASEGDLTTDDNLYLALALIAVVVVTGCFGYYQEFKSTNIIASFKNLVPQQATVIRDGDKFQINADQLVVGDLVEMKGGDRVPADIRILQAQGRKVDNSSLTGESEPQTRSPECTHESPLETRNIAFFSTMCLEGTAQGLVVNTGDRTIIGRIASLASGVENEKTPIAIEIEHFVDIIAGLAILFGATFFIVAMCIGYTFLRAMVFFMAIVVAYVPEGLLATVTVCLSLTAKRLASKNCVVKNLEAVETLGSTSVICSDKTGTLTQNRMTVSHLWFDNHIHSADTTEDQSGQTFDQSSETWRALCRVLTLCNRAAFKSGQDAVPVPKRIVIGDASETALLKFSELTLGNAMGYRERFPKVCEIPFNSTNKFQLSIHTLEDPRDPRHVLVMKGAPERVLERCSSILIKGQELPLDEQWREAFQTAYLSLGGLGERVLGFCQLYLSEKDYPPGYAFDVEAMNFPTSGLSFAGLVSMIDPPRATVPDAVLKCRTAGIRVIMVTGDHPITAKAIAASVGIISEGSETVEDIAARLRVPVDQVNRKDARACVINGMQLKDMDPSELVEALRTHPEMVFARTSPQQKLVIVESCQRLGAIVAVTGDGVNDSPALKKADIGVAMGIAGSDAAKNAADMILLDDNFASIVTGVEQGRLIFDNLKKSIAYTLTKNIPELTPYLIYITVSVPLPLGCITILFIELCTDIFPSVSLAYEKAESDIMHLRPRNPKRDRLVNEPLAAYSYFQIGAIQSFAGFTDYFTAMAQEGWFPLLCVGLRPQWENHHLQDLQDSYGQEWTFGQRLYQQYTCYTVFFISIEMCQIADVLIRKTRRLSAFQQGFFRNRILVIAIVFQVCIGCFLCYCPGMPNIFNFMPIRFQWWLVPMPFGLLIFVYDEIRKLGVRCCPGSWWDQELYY
T1 sequence (P18434 whole entry partner): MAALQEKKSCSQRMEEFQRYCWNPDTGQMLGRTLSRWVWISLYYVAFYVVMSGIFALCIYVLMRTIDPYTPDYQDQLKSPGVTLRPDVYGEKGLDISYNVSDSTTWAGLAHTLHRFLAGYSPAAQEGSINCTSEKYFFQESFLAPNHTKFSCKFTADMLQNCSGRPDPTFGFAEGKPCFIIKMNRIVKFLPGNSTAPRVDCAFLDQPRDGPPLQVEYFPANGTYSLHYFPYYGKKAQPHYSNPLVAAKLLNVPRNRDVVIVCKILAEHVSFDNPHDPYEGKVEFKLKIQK

In the case of `CNCc1cn(S(=O)(=O)c2cccc(C(F)(F)F)c2)c(-c2ccccc2F)c1OC` [Example 2, hydrochloride], the IC50 in assay [1] was found to be 15 nM. The inhibition at 10 µM on 5-HT2A is 39.5%; at M1 it was 92.7%; on M2, -4.7%.

On to `CNCc1cn(S(=O)(=O)c2cccc(F)c2)c(-c2c(F)cc(F)cc2F)c1OC.Cl` [Example 22, 1-(1-((3-fluorophenyl)sulfonyl)-4-methoxy-5-(2,4,6-trifluorophenyl)-1H-pyrrol-3-yl)-N-methylmethanamine hydrochloride], for which the IC50 is 14 nM in assay [1], 33 nM on 5-HT2A, 370 nM on M1 and 1000 nM on M2. For the same compound, the inhibition at 10 µM turned out to be 102% at 5-HT2A (single concentration of 10 uM), 98% on M1 and 100% at M2.

Turning to `CNCc1cn(S(=O)(=O)c2cccc(F)c2)c(-c2ccc(F)cc2F)c1OC.Cl` [Example 8, 1-(5-(2,4-difluorophenyl)-1-((3-fluorophenyl)sulfonyl)-4-methoxy-1H-pyrrol-3-yl)-N-methylmethanamine hydrochloride], the IC50 in assay [1] amounted to 24 nM; at 5-HT2A it was 110 nM; on M1, 140 nM; on M2 it was 650 nM. Moreover, the results for the inhibition at 10 µM at 5-HT2A (single concentration of 10 uM), at M1 and on M2 were 102%, 101% and 101%, respectively.

What is called inhibition is the drop in the measured response relative to a control, in per cent.
